Measurements as given in US9988381B2, “Five-member-heterocycle fused pyridine compounds, method of producing the same, and use thereof” (SHANGHAI INSTITUTE OF MATERIA MEDICA, CHINESE ACADEMY OF …, priority 2013, dated 2018).
Read-outs that look alike come from different tables or passages of the source.

Assays:
[1] = biological target: T1, c-Met kinase domain recombinant protein (Homo sapiens, UniProt P08581); assay: biochemical; conditions: read-out: Inhibition rate at 10 μM (%)
T1 construct: 50 μL diluted solution of c-Met kinase domain recombinant protein in reaction buffer was added to initiate the reaction
Method in brief: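 Recombinant c-Met kinase domain phosphorylated immobilised Poly(Glu,Tyr)4:1 for 1 h at 37 °C in 50 mM HEPES pH 7.4, 50 mM MgCl2, 0.5 mM MnCl2, 0.2 mM Na3VO4, 1 mM DTT with ATP. Product measured by anti-phosphotyrosine PY99 ELISA (HRP, 490 nm), giving percent inhibition; ATP-free wells served as control.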

[2] = biological target: T1, c-Met kinase domain recombinant protein; assay: biochemical; conditions: for inhibition at 1 µM: read-out: Average inhibition rate at 1 μM (%); for inhibition at 10 µM: read-out: Average inhibition rate at 10 μM (%); for inhibition at 0.1 µM: read-out: Average inhibition rate at 0.1 μM (%)
Method in brief: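 IC50 came from a four-parameter fit of inhibition rates measured by anti-phosphotyrosine (PY99/HRP) ELISA at 490 nm. The reaction ran 1 hour at 37° C with 5 μM ATP, c-Met kinase domain protein and Poly(Glu,Tyr)4:1-coated wells, in HEPES pH 7.4 buffer containing MgCl2, MnCl2, Na3VO4 and DTT.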

[3] = tested on: EBC-1 cell; assay: Test III: growth inhibition of non-small cell carcinoma EBC-1 cell (SRB); format: cell-based; conditions: Homo sapiens; for inhibition at 0.2 µM: read-out: Cell proliferation inhibition rate at 200 nM (%); for inhibition at 1 µM: read-out: Cell proliferation inhibition rate at 1 μM (%)
Protocol: Assays on the growth inhibition of the compounds against gastric tumor cell MKN45, non-small cell carcinoma EBC-1 cell (both are MET persistent activated cell lines due to MET gene amplification, and are Met dependent tumor cell lines, MKN45 cell was purchased from JCRB, Japan, EBC-1 cell was purchased from ATCC, USA) were detected using sulforhodamine B (SRB) staining. […] After incubation with compound for 72 hours, the incubation was terminated, adherent cells were retained and medium was discarded, 10% (w/v) trichloroacetic acid (100 μL pre well) was added, the cells were fixed at 4° C. for 1 hour, then rinsed with distilled water for 5 times, after dried at room temperature, SRB solution (4 mg/mL, dissolved in 1% glacial acetic acid) was added at 100 μL per well, incubated and stained at room temperature for 15 minutes, then rinsed with 1% glacial acetic acid for 5 times to remove any unbound SRB, dried at room temperature, then 10 mM Tris solution was added at 100 μL per well, the optical density (OD) value at 515 nm was measured using VERSMax microplate reader.
Experiments were conducted in duplicates. IC50 value was calculated by fitting the data for a four parameter fit using inhibition curve, the results are shown below in Table 2.

T1 sequence (P08581 1078-1345 limits assumed): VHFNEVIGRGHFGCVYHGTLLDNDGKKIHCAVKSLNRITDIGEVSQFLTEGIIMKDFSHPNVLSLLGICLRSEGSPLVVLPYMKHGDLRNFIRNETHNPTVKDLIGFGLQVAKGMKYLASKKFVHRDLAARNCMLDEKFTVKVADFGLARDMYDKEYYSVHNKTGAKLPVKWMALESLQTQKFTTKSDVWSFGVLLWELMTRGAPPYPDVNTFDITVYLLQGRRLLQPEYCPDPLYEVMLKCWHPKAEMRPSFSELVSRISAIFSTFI

Cn1cc(-c2cnc3cnn(S(=O)(=O)c4cnc5ccc(-c6ccccc6C(F)(F)F)cn45)c3c2)cn1 [Example 84, 1-{[6-(2-trifluoromethylphenyl)-imidazo[1,2-a]pyridine]-3-sulfonyl}-6-[(1-methyl)-4-pyrazolyl]-1-H-pyrazolo[4,3-b]pyridine]
inhibition at 10 µM [1]: > 71.5%
inhibition at 1 µM [2]: 41.2%
inhibition at 10 µM [2]: 73.5%

CN(C)c1ccc(-c2ccc3ncc(S(=O)(=O)n4ncc5ncc(-c6cnn(C)c6)cc54)n3c2)cc1 [Example 85, 1-{[6-(4-dimethylaminophenyl)-imidazo[1,2-a]pyridine]-3-sulfonyl}-6-[(1-methyl)-4-pyrazolyl]-1-H-pyrazolo[4,3-b]pyridine]
inhibition at 10 µM [1]: > 71.2%
inhibition at 1 µM [2]: 30.1%
inhibition at 10 µM [2]: 79.4%

Cn1cc(-c2cnc3cnn(S(=O)(=O)c4cnc5ccc(-c6cccc(F)c6)cn45)c3c2)cn1 [Example 86, 1-{[6-(3-fluorophenyl)-imidazo[1,2-a]pyridine]-3-sulfonyl}-6-[(1-methyl)-4-pyrazolyl]-1-H-pyrazolo[4,3-b]pyridine]
inhibition at 10 µM [1]: > 67.9%
inhibition at 0.1 µM [2]: 45%
inhibition at 1 µM [2]: 66.6%
inhibition at 10 µM [2]: 77.8%

Cn1cc(-c2cnc3cnn(S(=O)(=O)c4cnc5ccc(-c6ccc(F)cc6F)cn45)c3c2)cn1 [Example 87, 1-{[6-(2,4-difluorophenyl)-imidazo[1,2-a]pyridine]-3-sulfonyl}-6-[(1-methyl)-4-pyrazolyl]-1-H-pyrazolo[4,3-b]pyridine]
inhibition at 10 µM [1]: > 76.8%
inhibition at 0.1 µM [2]: 33.8%
inhibition at 1 µM [2]: 72.7%
inhibition at 10 µM [2]: 72.5%

Cn1cc(-c2cnc3cnn(S(=O)(=O)c4cnc5ccc(-c6cc(F)c(F)c(F)c6)cn45)c3c2)cn1 [Example 88, 1-{[6-(3,4,5-trifluorophenyl)-imidazo[1,2-a]pyridine]-3-sulfonyl}-6-[(1-methyl)-4-pyrazolyl]-1-H-pyrazolo[4,3-b]pyridine]
inhibition at 10 µM [1]: > 70.2%
inhibition at 0.1 µM [2]: 1.1%
inhibition at 1 µM [2]: 59.4%
inhibition at 10 µM [2]: 64.5%

COc1ccc(-c2ccc3ncc(S(=O)(=O)n4ncc5ncc(-c6cnn(C)c6)cc54)n3c2)cc1 [Example 89, 1-{[6-(4-methoxyphenyl)-imidazo[1,2-a]pyridine]-3-sulfonyl}-6-[(1-methyl)-4-pyrazolyl]-1-H-pyrazolo[4,3-b]pyridine]
inhibition at 10 µM [1]: > 71.7%
inhibition at 0.1 µM [2]: 45.3%
inhibition at 1 µM [2]: 79.9%
inhibition at 10 µM [2]: 83.4%

Cn1cc(-c2cnc3cnn(S(=O)(=O)c4cnc5ccc(-c6ccc(C#N)cc6)cn45)c3c2)cn1 [Example 92, 1-{[6-(4-cyanophenyl)-imidazo[1,2-a]pyridine]-3-sulfonyl}-6-[(1-methyl)-4-pyrazolyl]-1-H-pyrazolo[4,3-b]pyridine]
inhibition at 10 µM [1]: > 71.9%
inhibition at 0.1 µM [2]: 82.8%
inhibition at 1 µM [2]: 79.1%
inhibition at 10 µM [2]: 78.9%

Cn1cc(-c2cnc3cnn(S(=O)(=O)c4cnc5ccc(-c6ccc7c(c6)OCCO7)cn45)c3c2)cn1 [Example 93, 1-{[6-[6-(1,4-benzodioxanyl)]-imidazo[1,2-a]pyridine]-3-sulfonyl}-6-[(1-methyl)-4-pyrazolyl]-1-H-pyrazolo[4,3-b]pyridine]
inhibition at 10 µM [1]: > 64.5%
inhibition at 0.1 µM [2]: 76.1%
inhibition at 1 µM [2]: 76.8%
inhibition at 10 µM [2]: 77.9%

Cn1cc(-c2cnc3cnn(S(=O)(=O)c4cnc5ccc(-c6ccc(Cl)cc6)cn45)c3c2)cn1 [Example 94, 1-{[6-(4-chlorophenyl)-imidazo[1,2-a]pyridine]-3-sulfonyl}-6-[(1-methyl)-4-pyrazolyl]-1-H-pyrazolo[4,3-b]pyridine]
inhibition at 10 µM [1]: > 74.3%
inhibition at 0.1 µM [2]: 72.1%
inhibition at 1 µM [2]: 55.7%
inhibition at 10 µM [2]: 83.9%

COc1ccc(-c2ccc3ncc(S(=O)(=O)n4ncc5ncc(-c6cnn(C)c6)cc54)n3c2)cc1OC [Example 96, 1-{[6-(3,4-dimethoxyphenyl)-imidazo[1,2-a]pyridine]-3-sulfonyl}-6-[(1-methyl)-4-pyrazolyl]-1-H-pyrazolo[4,3-b]pyridine]
inhibition at 10 µM [1]: > 71.8%
IC50 [2]: 0.7 ± 0.1 nM
inhibition at 0.1 µM [2]: 56.6%
inhibition at 1 µM [2]: 61.5%
inhibition at 10 µM [2]: 68.3%

Cn1cc(-c2cnc3cnn(S(=O)(=O)c4cnc5ccc(-c6ccc7c(c6)OCO7)cn45)c3c2)cn1 [Example 98, 1-{[6-[5-(1,2-methylenedioxyphenyl)]-imidazo[1,2-a]pyridine]-3-sulfonyl}-6-[(1-methyl)-4-pyrazolyl]-1-H-pyrazolo[4,3-b]pyridine]
inhibition at 10 µM [1]: > 77.9%
IC50 [2]: 1.4 ± 0.1 nM
inhibition at 0.1 µM [2]: 50.6%
inhibition at 1 µM [2]: 66.8%
inhibition at 10 µM [2]: 74.3%

CNC(=O)c1ccc(-c2ccc3ncc(S(=O)(=O)n4ncc5ncc(-c6cnn(C)c6)cc54)n3c2)cc1F [Example 101, 1-{(6-(3-fluoro-4-methylaminocarbonylphenyl)-imidazo[1,2-a]pyridine)-3-sulfonyl}-6-[(1-methyl)-4-pyrazolyl]-1-H-pyrazolo[4,3-b]pyridine]
inhibition at 10 µM [1]: > 64.5%
IC50 [2]: 0.3 ± 0.1 nM
inhibition at 0.1 µM [2]: 100%
inhibition at 1 µM [2]: 100%

CC(C)c1c(-c2cnn(C)c2)cnc2cnn(S(=O)(=O)c3cnc4ccc(-c5cnn(C)c5)cn34)c12 [Example 103, 1-{(6-[(1-methyl)-4-pyrazolyl]-imidazo[1,2-a]pyridine)-3-sulfonyl}-6-[(1-methyl)-4-pyrazolyl]-7-isopropyl-1-H-pyrazolo[4,3-b]pyridine]
inhibition at 0.2 µM ([3]; EBC-1, 72 h): 80.9%
inhibition at 1 µM ([3]; EBC-1, 72 h): 92.7%
IC50 [2]: 3.2 ± 0.3 nM
inhibition at 0.1 µM [2]: 98.5%
inhibition at 1 µM [2]: 101%

O=S(=O)(c1cnc2ccc(-c3cn[nH]c3)cn12)n1ncc2ncc(-c3cn[nH]c3)cc21 [Example 104, 1-{[6-(4-pyrazolyl)-imidazo[1,2-a]pyridine]-3-sulfonyl}-6-(4-pyrazolyl)-1-H-pyrazolo[4,3-b]pyridine]
inhibition at 0.2 µM ([3]; EBC-1, 72 h): 85.7%
inhibition at 1 µM ([3]; EBC-1, 72 h): 89.2%
IC50 [2]: 2.1 ± 0.6 nM
inhibition at 0.1 µM [2]: 99.8%
inhibition at 1 µM [2]: 100%

Cn1cc(-c2cnc3cnn(S(=O)(=O)c4cnc5ccc(-c6cn[nH]c6)cn45)c3c2)cn1 [Example 105, 1-{[6-(4-pyrazolyl)-imidazo[1,2-a]pyridine]-3-sulfonyl}-6-[(1-methyl)-4-pyrazolyl]-1-H-pyrazolo[4,3-b]pyridine]
inhibition at 0.2 µM ([3]; EBC-1, 72 h): 77.7%
inhibition at 1 µM ([3]; EBC-1, 72 h): 91.5%
IC50 [2]: 2.6 ± 0.4 nM
inhibition at 0.1 µM [2]: 97.8%
inhibition at 1 µM [2]: 100%

Cn1cc(-c2ccc3ncc(S(=O)(=O)n4ncc5ncc(-c6cn[nH]c6)cc54)n3c2)cn1 [Example 106, 1-{(6-[(1-methyl)-4-pyrazolyl]-imidazo[1,2-a]pyridine)-3-sulfonyl}-6-(4-pyrazolyl)-1-H-pyrazolo[4,3-b]pyridine]
inhibition at 0.2 µM ([3]; EBC-1, 72 h): 37%
inhibition at 1 µM ([3]; EBC-1, 72 h): 85.7%
IC50 [2]: 1.9 ± 0.1 nM
inhibition at 0.1 µM [2]: 104%
inhibition at 1 µM [2]: 101%

Cn1cc(-c2cnc3[nH]cc(S(=O)(=O)n4ncc5cccnc54)c3c2)cn1 [Example 107, 1-{(5-[(1-methyl)-4-pyrazolyl])-1-H-pyrrolo [2,3-b]pyridine-3-sulfonyl}-1-H-pyrazolo[3,4-b]pyridine]
inhibition at 0.2 µM ([3]; EBC-1, 200 nM, 72 hours): 18.9%
inhibition at 1 µM ([3]; EBC-1, 1 μM, 72 hours): 18.1%
inhibition at 0.1 µM [2]: 29.1%
inhibition at 1 µM [2]: 88.2%

CCOc1cccc(-c2cnc3cnn(S(=O)(=O)c4cnc5ccc([N+](=O)[O-])cn45)c3c2)c1 [Example 113, 1-[(6-nitro-imidazo[1,2-a]pyridine)-3-sulfonyl]-6-(3-ethoxyphenyl)-1-H-pyrazolo[4,3-b]pyridine]
inhibition at 0.2 µM ([3]; EBC-1, 200 nM, 72 hours): 7.9%
inhibition at 1 µM ([3]; EBC-1, 1 μM, 72 hours): 9%
inhibition at 0.1 µM [2]: 48.6%
inhibition at 1 µM [2]: 97.7%

COc1ccc2ncc(S(=O)(=O)n3ncc4ncc(-c5cnn(C)c5)cc43)n2c1 [Example 121, 1-[(6-methoxy-imidazo[1,2-a]pyridine)-3-sulfonyl]-6-[(1-methyl)-4-pyrazolyl]-1-H-pyrazolo[4,3-b]pyridine]
inhibition at 0.2 µM ([3]; EBC-1, 72 h): 91.6%
inhibition at 1 µM ([3]; EBC-1, 72 h): 92.5%
IC50 [2]: 9 ± 1 nM
inhibition at 0.1 µM [2]: 99%
inhibition at 1 µM [2]: 101%
